Article PMC5634595, “Properties of halogenated and sulfonated porphyrins relevant for the selection of photosensitizers in anticancer and antimicrobial therapies” (PLoS ONE, 2017)

Legend:
[1] = Fluorescence emission and fluorescence quantum yield (comparative method); assay type: physicochemical; details: EtOH, TPP as standard
Procedure: Fluorescence emission spectra were recorded from 550 nm to 750 nm with excitation at Soret band (λ≈420 nm). The excitation and emission slits were both set to 8 nm and scanning speed to 50 nm/min. Fluorescence spectra were recorded with a Perkin Elmer Fluorescence Spectrometer LS 55. Determination of fluorescence quantum yields: ΦF of studied photosensitizers was determined using the comparative method according to the equation: ΦF=ΦFStd⋅FAStdn^2/FStdAnStd2, (1) where F and FStd are the areas under the fluorescence emission curves of the sample and the standard, A and AStd are the absorbance of the sample and the standard and n are the refractive indices of the solvent used for the sample and the standard, respectively. Commercially available tetraphenylporphyrin TPP (Std) (ΦF = 0.10 in toluene) was employed as the standard. The absorbance of the solutions at the excitation wavelength was in the range of 0.02. Singlet oxygen quantum yields were determined based on the relative phosphorescence emissions of singlet oxygen generated by a reference and by each one of the porphyrins, using a method described elsewhere. Briefly, a modified Applied Photophysics LKS.60 flash photolysis spectrometer with a Hamamatsu NIR photomultiplier for detection and HP Infinium (500 MHz, 1GSas^-1) or Tektronix DPO 7254 (2.5 GHz, 40GSas^-1) oscilloscopes were used. The adaptation of this spectrometer allowed for the detection of singlet oxygen phosphorescence at room temperature. This emission was detected using a Hamamatsu R5509–42 photomultiplier, cooled to 193 K in a liquid nitrogen chamber. […] The modification of the spectrometer for time-resolved singlet oxygen phosphorescence measurements involved the interposition of a Melles Griot cold mirror (03MCS005), which reflects more than 99% of the incident light in the 400–700 nm range, and of a Scotch RG665 filter. A 600 line diffraction grating was mounted in place of a standard one. […] Solutions of photosensitizers were prepared with matched absorbances close to 0.2 at 355 nm. […]

[2] = biological target: HSA (Homo sapiens, UniProt P02768); experiment: Binding to HSA by fluorescence quenching (Stern-Volmer, Scatchard)
Chain of HSA (P02768 25-609): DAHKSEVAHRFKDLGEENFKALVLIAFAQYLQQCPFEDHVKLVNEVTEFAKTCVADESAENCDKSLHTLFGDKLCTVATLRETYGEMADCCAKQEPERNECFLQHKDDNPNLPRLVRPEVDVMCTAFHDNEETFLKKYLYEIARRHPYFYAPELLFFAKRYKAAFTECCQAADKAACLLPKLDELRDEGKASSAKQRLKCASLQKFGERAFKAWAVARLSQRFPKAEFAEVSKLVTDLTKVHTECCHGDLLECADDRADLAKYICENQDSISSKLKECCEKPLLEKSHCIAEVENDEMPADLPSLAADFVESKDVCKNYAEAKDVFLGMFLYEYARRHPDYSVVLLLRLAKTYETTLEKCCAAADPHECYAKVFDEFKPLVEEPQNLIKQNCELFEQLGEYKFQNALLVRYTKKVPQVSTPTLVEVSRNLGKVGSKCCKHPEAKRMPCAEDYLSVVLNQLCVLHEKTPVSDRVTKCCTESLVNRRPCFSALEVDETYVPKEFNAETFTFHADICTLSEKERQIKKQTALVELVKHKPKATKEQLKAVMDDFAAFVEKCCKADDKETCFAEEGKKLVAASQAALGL
Procedure: The binding of the PS to HSA was studied by spectrofluorometry at room temperature. An aqueous (phosphate buffer saline, PBS) solution of HSA was titrated with varying concentrations of the respective porphyrin solutions. HSA was excited at 295 nm and fluorescence was recorded between 300 nm and 400 nm. The systematic lowering of HSA fluorescence with increasing photosensitizer concentrations was noted and used in the determination of the binding constants and the number of binding sites on HSA according to Scatchard equation. The changes in HSA fluorescence intensity were related to porphyrin concentrations by the Stern-Volmer relationship. The binding constant (Kb) of PS to lipoproteins was also determined using the spectroscopic titration method. The sets of steady-state emission spectra of PBS solutions with different concentrations of HDL and LDL, to which the porphyrin (5 μM) was added were measured. The fluorescence intensity of the dye increased upon its partitioning into the lipoproteins. To obtain Kb, F versus [L] data were plotted and fitted to by a nonlinear regression routine.

[3] = n-Octanol/PBS partition coefficient, shake-flask; assay type: physicochemical; details: modified shake-flask
Procedure: The n-octanol/PBS partition coefficients were measured following shake-flask method with minor modifications. The photosensitizers were dissolved in n-octanol previously saturated with a solution of PBS. The same volume of PBS saturated with n-octanol was added and mixed on a vortex device and then the phases were separated by centrifugation. Next, the PBS/n-octanol phase was taken and diluted to obtain 0.5% of PBS/n-octanol content in the final solution. This solution was left into the ultrasonic bath. The fluorescence of each solution was measured using Fluorescence Spectrometer LS 55 (Perkin Elmer) and compared with calibration curve to obtain the concentration of the photosensitizer. Partition coefficients were calculated from the ratio coct/cPBS, where coct and cPBS are the concentrations of the porphyrin derivatives in the n-octanol and in the PBS.

[4] = test system: 2H11 cells; experiment: Dark cytotoxicity, MTT; assay type: cell-based, murine; details: 2H11, 100 μM, 24 h
Procedure: (§1) The studies were performed on human lung adenocarcinoma (A549), murine colon carcinoma (CT26) and murine endothelial/vascular epithelium (2H11) cell lines. A549, CT26 and 2H11 cells were grown in full-strength DMEM with 4.5 g/L glucose, L-glutamine, sodium pyruvate and 3.7 g/L NaHCO3 (BioTech) with addition of 10% fetal bovine serum (BioTech, Poland) and supplemented by antibiotics (penicillin/streptomycin). Before the experiments, the cells were washed with PBS, removed by trypsinization, then re-plated into microplate (or culture flask) with appropriate cells density and maintained in a humidified atmosphere at 37 °C and 5% CO2.
(§2) MTT cytotoxicity assay (which determines the mitochondrial activity), based upon the ability of living cells to reduce (3-(4,5-dimethylthiazol-2-yl)2,5-diphenyl tetrazolium bromide (MTT) into formazan was used to assess photosensitizer-mediated cytotoxicity. Two identical 96-well plates with A549, CT26 or 2H11 cell cultures seeded on 96-plate microplate (10^4 per well) were used for each experiment. When the cells were attached to the plates, PS solution in growth medium (DMSO<0.5%) at concentrations between 0.1 to 100 μM was added to the culture. Treated cultures were incubated for optimal time (estimated experimentally) at 37°C in the dark. […] Data were expressed as mean absorbance value of six samples and standard error of the mean.

[5] = test system: CT26 cells; experiment: Dark cytotoxicity, MTT; assay type: cell-based, murine; details: CT26, 100 μM, 24 h
Procedure: as §1, §2

With `O=S(=O)(O)c1ccc(F)c(-c2c3nc(c(-c4c(F)ccc(S(=O)(=O)O)c4F)c4ccc([nH]4)c(-c4c(F)ccc(S(=O)(=O)O)c4F)c4nc(c(-c5c(F)ccc(S(=O)(=O)O)c5F)c5ccc2[nH]5)C=C4)C=C3)c1F` [F2POH, 5,10,15,20-tetrakis(2,6-difluoro-3-sulfophenyl)porphyrin] the “Fluorescence quantum yield ΦF” value [1] was 0.040, the “KSV (Stern-Volmer constant), HSA” value ([2]; HSA fluorescence quenching, PBS, room temperature) was 2.24 10^5M^-1 and the “n (number of binding sites), HSA” value ([2]; Scatchard analysis) was 1. For the same compound, the logP [3] was -1.74, the “Cytotoxicity in the dark” value [4] was 25% and the “Cytotoxicity in the dark” value [5] was 25%.
